{"source": "patent US7081474B2", "about": "“Drugs to improve synaptic transmission” (priority 1994, dated 2006)", "origin": "cited, not measured here", "key": {"[1]": {"tested_on": "slices of rat hippocampus", "settings": "cited from earlier work"}, "experimental animals": {"tested_on": "experimental animals", "settings": "cited from earlier work"}, "rats": {"tested_on": "rats", "settings": "infused into lateral ventricles; cited from earlier work"}, "[2]": {"tested_on": "LTP in hippocampus (CA1 field, dentate gyrus)", "settings": "cited from earlier work"}}, "note": "Read-outs that look alike come from different tables or passages of the source. No end group written: not given here.", "data": [{"compound": "N[C@@]1(C(=O)O)CC[C@@H](C(=O)O)C1", "note": "[1S,3R-ACPD, aminocyclopentane-1S,3R-decarboxylate]", "values": [{"measurement": "effect on synaptic responses", "setting": "[1]; brief application in vitro", "result": "long lasting potentiation"}, {"measurement": "deleterious effects", "setting": "experimental animals; administered directly into the brain", "result": "seizures and convulsions"}]}, {"compound": "NC(CCCP(=O)(O)O)C(=O)O", "note": "(stereo not shown) [APV, 2-amino-5-phosphonopentanoate]", "values": [{"measurement": "learning of the task", "setting": "rats", "result": "prevented from learning the task"}, {"measurement": "effect on LTP induction", "setting": "[2]; CA1 field and dentate gyrus", "result": "prevent LTP from taking place"}, {"measurement": "effect on LTP already established", "setting": "[2]", "result": "no effect"}]}, {"compound": "O=C(O)CN(CCN(CC(=O)O)CC(=O)O)CC(=O)O", "note": "[EDTA]", "values": [{"measurement": "induction of LTP", "setting": "[2]; intracellular injection", "result": "blocked"}]}, {"compound": "CC(=O)N[C@@H](CC(C)C)C(=O)N[C@@H](CC(C)C)C(=O)N[C@H](C=O)CCCNC(=N)N", "note": "[leupeptin]", "values": [{"measurement": "LTP on electrical stimulation of the hippocampus", "setting": "[2]; infusion into lateral ventricles of rats", "result": "no longer produces LTP"}]}, {"compound": "CC[N+](CC)(CC)CC", "note": "[tetraethylammonium]", "values": [{"measurement": "effect on synaptic responses", "setting": "[1]", "result": "long lasting potentiation"}]}, {"compound": "mast-cell-degranulating peptide: K+ channel blocker (IKCNCKRHVIKPHICRKICGKN; ends and bridges not checked; cysteine pairing not given here; UniProt P01499 28-49, looked up)", "values": [{"measurement": "effect on synaptic responses", "setting": "[1]", "result": "long lasting potentiation"}, {"measurement": "deleterious effects", "setting": "experimental animals; in vivo", "result": "seizures and convulsions"}]}]}
